Experimental data published in patent US10329282B2, “Rho-associated protein kinase inhibitor, pharmaceutical composition comprising the same, as well as preparation method and use thereof” (Beijing Tide Pharmaceutical Co., Ltd., priority 2017, dated 2019).

Target: ROCK2 (Homo sapiens (Human), UniProt O75116)
Experiment: ROCK2 kinase IC50 assay (CISBIO HTRF KinEASE-STK S2 kit)
Assay type: biochemical
Conditions: ROCK2 from Carna Biosciences, 2 h incubation at room temperature
Protocol: The kinase IC50 was determined by a commercialized CISBIO kinase detection kit, HTRF KinEASE-STK S2 kit (62ST2PEC). ROCK2 (01-119) employed in the reaction was purchased from Carna Biosciences.
Before the assay, the following working solutions as needed were formulated with corresponding reagents according to the instruction of the kinase detection kit: 1×kinase buffer, 5×STK-52 substrate working solution (1.5 μM) and 5×ATP working solution (1.5 μM), 5×ROCK2 kinase working solution, 4×Streptavidin-XL665 working solution, and 4×STK-Ab-Cryptate 2 detection solution. Then the assay was performed according to the following procedure.
A solution of a compound at a concentration of 10000 nM was prepared with the 1×kinase buffer containing 2.5% DMSO. Gradient dilution of the solution of the compound was performed with the kinase buffer containing DMSO, so as to obtain solutions of a test compound at 9 different concentrations. In addition to wells of test compounds, a positive well (containing all the reagents except the compound) and a negative well (containing all the reagents except the test compound and kinase) were set. Except for the control wells (positive and negative wells), a solution of a test compound (4 μL) was added to each of the reaction wells, and a solution of 2.5% DMSO was added to the control wells. Then the substrate (2 μM, i.e., 2 μL 5×STK-S2 substrate working solution) was added to each of the reaction wells. The 5×ROCK2 kinase working solution (2 μL, containing 1.4 ng ROCK2 kinase) was added to each of the reaction wells except for the negative well, the volume of which was made up with the 1×kinase buffer (2 μL). The 5×ATP working solution (2 μL) was added to each of the reaction wells, and the mixtures were incubated at room temperature for 2 hours. After the kinase reaction was complete, the 4×Streptavidin-XL665 working solution was added to each of the reaction wells, the solutions were mixed, followed by immediate addition of the 4×STK-Ab-Cryptate 2 detection solution (5 μL), and the mixtures were incubated at room temperature for 1 hour. The fluorescence signal was read on ENVISION (Perkinelmer) (excitation wavelength: 320 nm, and emission wavelength: 665 nm and 615 nm). The inhibitory rate in each well was calculated based on the fluorescence intensity value: ER (Emission Ratio)=(fluorescence intensity at 665 nm/fluorescence intensity at 615 nm); inhibitory rate=(ERpositive−ERtest compound) (ERpositive−ERnegative)*100%. Curves were plotted and fitted to obtain the median inhibitory concentration (IC50) of each teat compound with the PRISM 5.0 software.

Chain of ROCK2 (O75116 1-553): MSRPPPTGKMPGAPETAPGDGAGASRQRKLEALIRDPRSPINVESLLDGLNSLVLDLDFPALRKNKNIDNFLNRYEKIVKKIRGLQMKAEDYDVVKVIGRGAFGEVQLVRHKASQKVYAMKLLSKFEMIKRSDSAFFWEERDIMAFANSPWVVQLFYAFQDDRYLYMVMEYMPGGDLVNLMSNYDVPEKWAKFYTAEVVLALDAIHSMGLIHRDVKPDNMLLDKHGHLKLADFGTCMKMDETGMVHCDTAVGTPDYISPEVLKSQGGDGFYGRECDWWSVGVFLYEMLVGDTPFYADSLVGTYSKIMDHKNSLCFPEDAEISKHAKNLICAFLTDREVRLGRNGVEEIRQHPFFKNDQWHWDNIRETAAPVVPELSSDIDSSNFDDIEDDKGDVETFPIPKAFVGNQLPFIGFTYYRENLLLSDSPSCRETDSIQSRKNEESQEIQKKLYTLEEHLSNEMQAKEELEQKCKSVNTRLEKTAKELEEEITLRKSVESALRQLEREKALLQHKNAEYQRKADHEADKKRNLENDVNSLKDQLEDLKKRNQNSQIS

Question: For `CC(C)NC(=O)N1Cc2ccc(-c3nccc(Nc4ccc5[nH]ncc5c4)n3)cc2C1` [TDI01312, 5-(4-((1H-indazol-5-yl)amino)pyrimidin-2-yl)-N-isopropylisoindoline-2-carboxamide], which IC50 is on record?
Answer: Its IC50 is 73 nM.

Question: How did the IC50 turn out when `CN1CCC(N2CCCC(NC(=O)c3cc4ccc(-c5nccc(Nc6ccc7[nH]ncc7c6)n5)cc4[nH]3)C2)CC1` (stereo not shown) [TDI01318, 6-(4-((1H-indazol-5-yl)amino)pyrimidin-2-yl)-N-(1′-methyl-[1,4′-bipiperidin]-3-yl)-1H-indole-2-carboxamide] was run?
Answer: Its IC50 is 18 nM.

Question: For `O=C(NC1CCOCC1)c1cc2ccc(-c3nccc(Nc4ccc5[nH]ncc5c4)n3)cc2[nH]1` [TDI01291, 6-(4-((1H-indazol-5-yl)amino)pyrimidin-2-yl)-N-(tetrahydro-2H-pyran-4-yl)-1H-indole-2-carboxamide], which IC50 is on record?
Answer: Its IC50 is 32 nM.

Question: Which IC50 does the source give for `O=C(NC1CCOC1)c1cc2ccc(-c3nc(Nc4ccc(-c5cn[nH]c5)cc4)c4sccc4n3)cc2[nH]1` (stereo not shown) [TDI01423, 6-(4-((4-(1H-pyrazol-4-yl)phenyl)amino)thieno[3,2-d]pyrimidin-2-yl)-N-(tetrahydrofuran-3-yl)-1H-indole-2-carboxamide] here?
Answer: The IC50 was 264 nM.

Question: With `CN(CC(F)(F)F)C(=O)c1cc2ccc(-c3nccc(Nc4ccc(-c5cn[nH]c5)cc4)n3)cc2[nH]1` [TDI01355, 6-(4-((4-(1H-pyrazol-4-yl)phenyl)amino)pyrimidin-2-yl)-N-methyl-N-(2,2,2-trifluoroethyl)-1H-indole-2-carboxamide] as the compound, how does the IC50 read?
Answer: The IC50 was 54 nM.

Question: For `O=C(NC1CCOCC1)c1cc2ccc(-c3nccc(Nc4ccc(-c5cn[nH]c5)cc4)n3)cc2[nH]1` [TDI01338, 6-(4-((4-(1H-pyrazol-4-yl)phenyl)amino)pyrimidin-2-yl)-N-(tetrahydro-2H-pyran-4-yl)-1H-indole-2-carboxamide], which IC50 is on record?
Answer: Its IC50 is 115 nM.

Question: Which IC50 does the source give for `CC(C)NC(=O)c1cc2ccc(-c3nc(Nc4ccc5[nH]ncc5c4)cc(OCCN(C)C)n3)cc2s1` [TDI01121, 6-(4-((1H-indazol-5-yl)amino)-6-(2-(dimethylamino)ethoxy)pyrimidin-2-yl)-N-isopropylbenzo[b]thiophene-2-carboxamide] here?
Answer: Its IC50 is 470 nM.

Question: Which IC50 does the source give for `COc1ccc(NC(=O)c2cc3ccc(-c4nccc(Nc5ccc6[nH]ncc6c5)n4)cc3[nH]2)cn1` [TDI01315, 6-(4-((1H-indazol-5-yl)amino)pyrimidin-2-yl)-N-(6-methoxypyridin-3-yl)-1H-indole-2-carboxamide] here?
Answer: Its IC50 is 126 nM.

Question: `O=C(Nc1ccncc1I)c1cc2ccc(-c3nccc(Nc4ccc(-c5cn[nH]c5)cc4)n3)cc2[nH]1` [TDI01829C] was tested. Which IC50 did it give?
Answer: Its IC50 is 97 nM.

Question: `CC(C)NC(=O)c1cc2ccc(-c3nc(Nc4ccc(-c5cn[nH]c5)cc4)c4sccc4n3)cc2[nH]1` [TDI01370, 6-(4-((4-(1H-pyrazol-4-yl)phenyl)amino)thieno[3,2-d]pyrimidin-2-yl)-N-isopropyl-1H-indole-2-carboxamide] was tested. Which IC50 did it give?
Answer: Its IC50 is 109 nM.

Question: With `CC(C)NC(=O)c1cc2ccc(-c3nccc(Nc4ccc(-c5cn[nH]c5)cc4)n3)cc2[nH]1` [TDI01280, 6-(4-((4-(1H-pyrazol-4-yl)phenyl)amino)pyrimidin-2-yl)-N-isopropyl-1H-indole-2-carboxamide] as the compound, how does the IC50 read?
Answer: Its IC50 is 94 nM.

Question: For `C[C@@H](CN)NC(=O)c1cc2ccc(-c3nccc(Nc4ccc(-c5cn[nH]c5)cc4)n3)cc2[nH]1` [TDI01856, (S)-6-(4-((4-(1H-pyrazol-4-yl)phenyl)amino)pyrimidin-2-yl)-N-(1-aminopropan-2-yl)-1H-indole-2-carboxamide], which IC50 is on record?
Answer: Its IC50 is 141 nM.

Question: How did the IC50 turn out when `CC(C)NC(=O)c1cc2ccc(-c3nccc(Nc4ccc5[nH]ncc5c4)n3)cc2s1` [TDI01104, 6-(4-((1H-indazol-5-yl)amino)pyrimidin-2-yl)-N-isopropylbenzo[b]thiophene-2-carboxamide] was run?
Answer: Its IC50 is 71 nM.

Question: `O=C(Nc1ccccn1)c1cc2ccc(-c3nccc(Nc4ccc5[nH]ncc5c4)n3)cc2[nH]1` [TDI01311, 6-(4-((1H-indazol-5-yl)amino)pyrimidin-2-yl)-N-(pyridin-2-yl)-1H-indole-2-carboxamide] was tested. Which IC50 did it give?
Answer: Its IC50 is 465 nM.

Question: `CNC(=O)c1cc2ccc(-c3nc(Nc4ccc(-c5cn[nH]c5)cc4)c4sccc4n3)cc2[nH]1` [TDI01379, 6-(4-((4-(1H-pyrazol-4-yl)phenyl)amino)thieno[3,2-d]pyrimidin-2-yl)-N-methyl-1H-indole-2-carboxamide] was tested. Which IC50 did it give?
Answer: The IC50 was 411 nM.

Question: For `CCN(CC)C(=O)c1cc2ccc(-c3ncc(OC)c(Nc4ccc(-c5cn[nH]c5)cc4)n3)cc2[nH]1` [TDI01823, 6-(4-((4-(1H-pyrazol-4-yl)phenyl)amino)-5-methoxypyrimidin-2-yl)-N,N-diethyl-1H-indole-2-carboxamide], which IC50 is on record?
Answer: Its IC50 is 336 nM.

Question: How did the IC50 turn out when `CN(C)c1cnccc1NC(=O)c1cc2ccc(-c3nccc(Nc4ccc5[nH]ncc5c4)n3)cc2[nH]1` [TDI01289, 6-(4-((1H-indazol-5-yl)amino)pyrimidin-2-yl)-N-(3-(dimethylamino)pyridin-4-yl)-1H-indole-2-carboxamide] was run?
Answer: The IC50 was 72 nM.

Question: How did the IC50 turn out when `CC(C)NC(=O)c1ccc2cc(-c3nccc(Nc4ccc5[nH]ncc5c4)n3)[nH]c2c1` [TDI01127, 2-(4-((1H-indazol-5-yl)amino)pyrimidin-2-yl)-N-isopropyl-1H-indole-6-carboxamide] was run?
Answer: Its IC50 is 100 nM.

Question: How did the IC50 turn out when `CN(C(=O)c1cc2ccc(-c3nccc(Nc4ccc(-c5cn[nH]c5)cc4)n3)cc2[nH]1)C(CO)CO` [TDI01344-2A, 6-(4-((4-(1H-pyrazol-4-yl)phenyl)amino)pyrimidin-2-yl)-N-(1,3-dihydroxypropan-2-yl)-N-methyl-1H-indole-2-carboxamide] was run?
Answer: Its IC50 is 107 nM.

Question: For `CC(C)NC(=O)c1cc2ccc(-c3nccc(Nc4ccc5[nH]ncc5c4)n3)cc2o1` [TDI01102, 6-(4-((1H-indazol-5-yl)amino)pyrimidin-2-yl)-N-isopropylbenzofuran-2-carboxamide], which IC50 is on record?
Answer: Its IC50 is 110 nM.

Question: Which IC50 does the source give for `O=C(Nc1cnccn1)c1cc2ccc(-c3nccc(Nc4ccc5[nH]ncc5c4)n3)cc2[nH]1` [TDI01160, 6-(4-((1H-indazol-5-yl)amino)pyrimidin-2-yl)-N-(pyrazin-2-yl)-1H-indole-2-carboxamide] here?
Answer: Its IC50 is 54 nM.

Question: For `CN1CCN(C(=O)c2cc3ccc(-c4nccc(Nc5ccc(-c6cn[nH]c6)cc5)n4)cc3[nH]2)CC1` [TDI01343, (6-(4-((4-(1H-pyrazol-4-yl)phenyl)amino)pyrimidin-2-yl)-1H-indol-2-yl)(4-methylpiperazin-1-yl)methanone], which IC50 is on record?
Answer: The IC50 was 436 nM.

Question: `O=C(c1cc2ccc(-c3nccc(Nc4ccc(-c5cn[nH]c5)cc4)n3)cc2[nH]1)N1CCC1` [TDI01330, (6-(4-((4-(1H-pyrazol-4-yl)phenyl)amino)pyrimidin-2-yl)-1H-indol-2-yl)(azetidin-1-yl)methanone] was tested. Which IC50 did it give?
Answer: The IC50 was 474 nM.

Question: `CN1CCC2(CC1)CCN(C(=O)c1cc3ccc(-c4nccc(Nc5ccc6[nH]ncc6c5)n4)cc3[nH]1)CC2` [TDI01320, (6-(4-((1H-indazol-5-yl)amino)pyrimidin-2-yl)-1H-indol-2-yl)(9-methyl-3,9-diazaspiro[5.5]undecan-3-yl)methanone] was tested. Which IC50 did it give?
Answer: The IC50 was 410 nM.

Question: For `CC(C)NC(=O)c1ccc2ccc(-c3nccc(Nc4ccc5[nH]ncc5c4)n3)cc2n1` [TDI01327, 7-(4-((1H-indazol-5-yl)amino)pyrimidin-2-yl)-N-isopropylquinoline-2-carboxamide], which IC50 is on record?
Answer: The IC50 was 472 nM.

Question: `CN1CCC(NC(=O)c2cc3ccc(-c4nccc(Nc5ccc6[nH]ncc6c5)n4)cc3s2)CC1` [TDI01114, 6-(4-((1H-indazol-5-yl)amino)pyrimidin-2-yl)-N-(1-methylpiperidin-4-yl)benzo[b]thiophene-2-carboxamide] was tested. Which IC50 did it give?
Answer: Its IC50 is 157 nM.

Question: For `CN(C(=O)c1cc2ccc(-c3nccc(Nc4ccc(-c5cn[nH]c5)cc4)n3)cc2[nH]1)C1CCOCC1` [TDI01381], which IC50 is on record?
Answer: Its IC50 is 341 nM.

Question: `CN1CCC(NC(=O)c2cc3ccc(-c4nccc(Nc5ccc(-c6cn[nH]c6)cc5)n4)cc3[nH]2)C1` (stereo not shown) [TDI01339, 6-(4-((4-(1H-pyrazol-4-yl)phenyl)amino)pyrimidin-2-yl)-N-(1-methylpyrrolidin-3-yl)-1H-indole-2-carboxamide] was tested. Which IC50 did it give?
Answer: Its IC50 is 147 nM.

Question: With `C[C@H](CN)NC(=O)c1cc2ccc(-c3nccc(Nc4ccc(-c5cn[nH]c5)cc4)n3)cc2[nH]1` [TDI01855, (R)-6-(4-((4-(1H-pyrazol-4-yl)phenyl)amino)pyrimidin-2-yl)-N-(1-aminopropan-2-yl)-1H-indole-2-carboxamide] as the compound, how does the IC50 read?
Answer: The IC50 was 147 nM.

Question: How did the IC50 turn out when `CCNC(=O)N1Cc2ccc(-c3nccc(Nc4ccc(-c5cn[nH]c5)cc4)n3)cc2C1` [TDI01411, 5-(4-((4-(1H-pyrazol-4-yl)phenyl)amino)pyrimidin-2-yl)-N-ethylisoindoline-2-carboxamide] was run?
Answer: Its IC50 is 258 nM.

Question: How did the IC50 turn out when `O=C(Nc1ccccc1)c1cc2ccc(-c3nccc(Nc4ccc5[nH]ncc5c4)n3)cc2[nH]1` [TDI01215, 6-(4-((1H-indazol-5-yl)amino)pyrimidin-2-yl)-N-phenyl-1H-indole-2-carboxamide] was run?
Answer: The IC50 was 382 nM.
